From ChEMBL document CHEMBL1201862, “PubChem BioAssay data set” (2004)
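Cultured in 96-well plates, cells were exposed to test compound for 48 hours across five concentrations. GI50: concentration for 50% inhibition of growth.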 Calls of active or inactive are those of the source. No stated cut-off is given here; in the data, active = GI50 up to about 1.1 µM and inactive = higher.

How the values were obtained:
Test in all cases: NCI-60 cell line screen, 48 h
ACHN = test system: ACHN
OVCAR-8 = test system: OVCAR-8
KM12 = test system: KM12
OVCAR-5 = test system: OVCAR-5
UACC-62 = test system: UACC-62
M14 = test system: M14
Malme-3M = test system: Malme-3M
UACC-257 = test system: UACC-257
HOP-92 = test system: HOP-92
T47D = test system: T47D
HCT-116 = test system: HCT-116
IGROV-1 = test system: IGROV-1
OVCAR-3 = test system: OVCAR-3
HOP-62 = test system: HOP-62
MDA-N = test system: MDA-N
SK-MEL-5 = test system: SK-MEL-5
NCI-H460 = test system: NCI-H460
K562 = test system: K562
SK-MEL-28 = test system: SK-MEL-28
SF-268 = test system: SF-268

Measured: GI50

O=C(O)CCc1ccc2c(c1)CC1(Cc3ccccc3C1)C2
inactive: ACHN 58.5 µM | OVCAR-8 > 100 µM | KM12 > 100 µM | OVCAR-5 > 100 µM | UACC-62 > 100 µM | M14 > 100 µM | Malme-3M > 100 µM | UACC-257 > 100 µM | HOP-92 > 100 µM | T47D > 100 µM | HCT-116 > 100 µM | IGROV-1 > 100 µM | OVCAR-3 > 100 µM | HOP-62 > 100 µM | MDA-N > 100 µM | SK-MEL-5 > 100 µM

C=CCOC(OCC=C)/C(Br)=C/C
inactive: ACHN 17.6 µM | NCI-H460 67.3 µM | K562 > 100 µM | SK-MEL-28 > 100 µM | SF-268 28.8 µM | OVCAR-8 17.7 µM | KM12 > 100 µM | OVCAR-5 49.5 µM | UACC-62 64.4 µM | M14 32.1 µM | UACC-257 > 100 µM | HOP-92 56.5 µM | T47D 31.8 µM | HCT-116 13.5 µM | OVCAR-3 47.1 µM | HOP-62 > 100 µM | MDA-N 37 µM | SK-MEL-5 37 µM

COC(NC(=O)Nc1ccccc1C)(C(F)(F)F)C(F)(F)F
inactive: ACHN > 100 µM | NCI-H460 > 100 µM | K562 77.1 µM | SK-MEL-28 > 100 µM | SF-268 > 100 µM | OVCAR-8 > 100 µM | KM12 > 100 µM | OVCAR-5 > 100 µM | UACC-62 56.6 µM | M14 > 100 µM | HOP-92 > 100 µM | T47D 22.4 µM | HCT-116 > 100 µM | IGROV-1 > 100 µM | OVCAR-3 > 100 µM | HOP-62 > 100 µM | MDA-N > 100 µM | SK-MEL-5 > 100 µM

COC(CN(C)C(=O)C(C)NC(=O)c1ccccc1)OC (centres undefined)
inactive: ACHN > 100 µM | NCI-H460 > 100 µM | K562 > 100 µM | SF-268 > 100 µM | OVCAR-8 > 100 µM | KM12 > 100 µM | OVCAR-5 > 100 µM | UACC-62 > 100 µM | M14 > 100 µM | Malme-3M > 100 µM | UACC-257 > 100 µM | HOP-92 > 100 µM | T47D > 100 µM | HCT-116 > 100 µM | IGROV-1 > 100 µM | MDA-N > 100 µM | SK-MEL-5 > 100 µM
